Results on 6 molecules are retold here after US20070129380A1.

The test system of one data set is Botrytis cinerea. The data set is described as follows: Activity against gray mold on bell pepper leaves caused by Botrytis cinerea, protective application. The format is in vivo. Particulars: 250 ppm active compound, sprayed to runoff, bell pepper seedlings, inoculated next day, assessed after 5 days; untreated plants 90% infected. The method, then: The active compounds were prepared separately as a stock solution with 0.25% by weight of active compound in acetone or DMSO. 1% by weight of the emulsifier Uniperol® EL (wetting agent having emulsifying and dispersing action based on ethoxylated alkyl-phenols) was added to this solution. The stock solutions of the active compounds were diluted with water to the desired concentration. 1) Activity Against Gray Mold on Bell Pepper Leaves Caused by Botrytis cinerea, Protective Application […] The next day, the treated plants were inoculated with a spore suspension of Botrytis cinerea, this contained 1.7×10^6 spores/ml in a 2% strength aqueous biomalt solution. The test plants were then placed in a climate-chamber at 22-24° C. and high atmospheric humidity.

For data set [1], the system named is Pyrenophora [syn. Drechslera] teres. Kind of data set: Activity against net blotch of barley caused by Pyrenophora teres. Particulars: 250 ppm active compound, sprayed to runoff, barley seedlings, inoculated 24 hours after drying, assessed after 6 days; untreated plants 80% infected. The data set is classed as in vivo. As for the experimental part: The active compounds were prepared separately as a stock solution with 0.25% by weight of active compound in acetone or DMSO. 1% by weight of the emulsifier Uniperol® EL (wetting agent having emulsifying and dispersing action based on ethoxylated alkyl-phenols) was added to this solution. The stock solutions of the active compounds were diluted with water to the desired concentration. 4) Activity Against Net Blotch of Barley Caused by Pyrenophora teres […] Drechslera] teres, the causative agent of net blotch. The test plants were subsequently placed in a greenhouse at temperatures of between 20 and 24° C. and a relative atmospheric humidity of 95 to 100%. After 6 days, the extent of development of the disease was determined visually in % of infection of the total leaf area.

For `CC(C)Nc1nc(C(N)=S)nc(Cl)c1-c1c(F)cccc1Cl` [Compound I-3], in the data set on Botrytis cinerea, the “extent of the fungal infection on the leaves determined visually in %” value (shortened to “extent of the fungal infection … in %”) is “not infected”.
Consider `CCC(C)Nc1nc(C(N)=S)nc(Cl)c1-c1c(F)cccc1Cl` (stereo not drawn) [Compound I-8, 4-sec-butylamino-6-chloro-5-(2-chloro-6-fluorophenyl)pyrimidine-2-thiocarbamide], for which the melting point (usually the temperature, or range, at which the solid turns liquid) was in the range of 147 to 150 °C. The “extent of the fungal infection … in %” value with Botrytis cinerea is listed as “not infected”.
Take `CCN(CC)c1nc(C(N)=S)nc(Cl)c1-c1c(F)cc(F)cc1F` [Compound I-19]: the melting point lay in the range of 55 to 58 °C. Moreover, the “extent of development of the disease determined visually in % of infection of the total leaf area” value in data set [1] was found to be 10%.
The molecule `Cc1nc(C(N)=S)nc(NC(C)C)c1-c1c(F)cc(F)cc1F` [Compound I-23] yielded a melting point of 158 °C.
As to `CC(C)Nc1nc(C(N)=S)nc(Cl)c1-c1c(F)cc(F)cc1F` [Compound I-4], the melting point lay in the range of 145 to 149 °C. Also, in the data set on Botrytis cinerea, the “extent of the fungal infection … in %” value is given as “not infected”.
For `C[C@H](Nc1nc(C(N)=S)nc(Cl)c1-c1c(F)cc(F)cc1F)C(F)(F)F` [Compound I-2, (S)-4-chloro-6-(2,2,2-trifluoro-1-methylethylamino)-5-(2,4,6-trifluorophenyl)pyrimidine-2-thiocarbamide], the “extent of the fungal infection … in %” value in the data set on Botrytis cinerea was “not infected”.
